The values that follow come from PubChem BioAssay AID1224913.

What is called inhibition is the change of the read-out against control, counted positive when it falls.

The experiment has as its target Proto-oncogene tyrosine-protein kinase Src (Homo sapiens) (UniProt P12931). The experiment is described as follows: cellular SRC kinase inhibition, late-stage follow-up, cell-based, Western blot (AID 1224913). Conditions: MDA-MB-231/MCF7 cells, pSRC Y416 Western blot; at 0.1 µM; hits give high values. On the technique in general: In western blotting, separated proteins are transferred to a membrane and probed.

Sequence of Proto-oncogene tyrosine-protein kinase Src (Homo sapiens) (P12931 whole entry, looked up): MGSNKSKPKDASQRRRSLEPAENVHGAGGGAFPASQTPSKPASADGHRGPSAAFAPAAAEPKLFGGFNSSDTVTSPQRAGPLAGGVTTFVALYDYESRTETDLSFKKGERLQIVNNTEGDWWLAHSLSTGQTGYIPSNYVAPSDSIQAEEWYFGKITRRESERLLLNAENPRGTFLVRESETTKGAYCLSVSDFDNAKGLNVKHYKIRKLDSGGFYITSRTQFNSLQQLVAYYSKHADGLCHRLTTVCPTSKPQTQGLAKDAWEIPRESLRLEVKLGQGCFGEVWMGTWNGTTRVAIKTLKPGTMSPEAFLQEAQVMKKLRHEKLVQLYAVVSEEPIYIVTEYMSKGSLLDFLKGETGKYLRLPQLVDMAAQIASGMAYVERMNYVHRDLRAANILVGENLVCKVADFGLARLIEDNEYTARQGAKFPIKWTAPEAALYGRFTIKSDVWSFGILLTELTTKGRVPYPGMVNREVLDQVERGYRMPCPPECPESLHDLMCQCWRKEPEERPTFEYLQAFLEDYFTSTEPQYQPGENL

In the case of `COc1cc(-c2nn(CCN3CCC(N(C)C)CC3)c3ncnc(N)c23)ccc1NC(=O)OC(C)(C)C`, the inhibition is 100%.
